{"source": "ChEMBL document CHEMBL1148466", "about": "“Self-association of okadaic acid upon complexation with potassium ion” (J Med Chem, 2004)", "key": {"[1]": {"assay": "Inhibitory activity against serine/threonine protein phosphatase 2 (PP2A)"}, "[2]": {"biological_target": "Serine/threonine-protein phosphatase PP1-gamma catalytic subunit (Homo sapiens, UniProt P36873)", "sequence (P36873 whole entry)": "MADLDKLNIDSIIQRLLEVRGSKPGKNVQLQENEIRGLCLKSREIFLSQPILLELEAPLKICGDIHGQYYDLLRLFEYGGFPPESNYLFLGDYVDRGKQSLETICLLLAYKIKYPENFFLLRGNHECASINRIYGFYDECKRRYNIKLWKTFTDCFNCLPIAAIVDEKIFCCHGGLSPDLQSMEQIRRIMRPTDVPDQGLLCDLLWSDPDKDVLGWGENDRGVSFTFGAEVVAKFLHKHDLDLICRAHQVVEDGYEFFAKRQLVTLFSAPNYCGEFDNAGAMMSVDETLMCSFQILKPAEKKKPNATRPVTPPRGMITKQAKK", "assay": "Inhibitory activity against serine/threonine protein phosphatase 1(PP1)"}}, "data": [{"compound": "C=C1[C@@H](O)[C@@H]2O[C@]3(CC[C@H](/C=C/[C@@H](C)[C@@H]4CC(C)=C[C@@]5(O[C@H](C[C@@](C)(O)C(=O)O)CC[C@H]5O)O4)O3)CC[C@H]2O[C@@H]1[C@@H](O)C[C@H](C)[C@H]1O[C@@]2(CCCCO2)CC[C@H]1C", "note": "[OKADAIC ACID]", "values": [{"measurement": "IC50", "setting": "[1]", "value": 0.2, "unit": "nM"}, {"measurement": "IC50", "setting": "[2]", "value": 20, "unit": "nM"}]}]}
